Test results taken from patent US20030204875A1, “Novel agrobacterium-mediated plant transformation method” (priority 1999, published 2003).
Like-named read-outs stand apart in the source and are kept apart here.

Tests used:
[1] = system: Agrobacterium tumefaciens strain EHA 101
Method: Three mls of pre-induced Agrobacterium suspension (A660 OD 4.0) was added to a 6-well tissue culture plate as described. After adding the explants to the Agrobacterium suspension cells, the inoculation was performed for 15 minutes. The Agrobacterium suspension was removed and the embryos were placed on semi-solid medium with or without AgNO3 (20 ? M final concentration). All the tissues were incubated for three days in the dark. The amount of Agrobacterium present was estimated at the beginning by randomly sampling immature embryos immediately after inoculation and again at the end of the co-culture period to determine the number of attached Agrobacterium cells per immature embryo explant.

[2] = system: corn immature embryos, genotype LH198 X Hi-II; conditions: 20 μM silver nitrate
Text: Corn genotype LH198 X Hi-II was used. Corn immature embryos were isolated as described previously. Approximately 30 immature embryos were inoculated for each treatment with Agrobacterium strain ABI harboring plasmid pMON18365 for five minutes and placed on co-culture media for two to three days. There were 4 replicates per treatment. The four treatments included:
Treatment 1: absence of growth inhibiting agent (in both inoculation and co-culture media)
Treatment 2: absence of agent in inoculation media; presence of agent (20 μM silver nitrate) in co-culture media.
Treatment 3: presence of agent (20 μM silver nitrate) in inoculation media; absent in co-culture media
Treatment 4: presence of agent (20 μM silver nitrate) in both inoculation and co-culture media
Within each treatment, five immature embryos were used for transient analysis. This was repeated across all reps within each treatment. The number of GUS spots was determined on both the scutellar surface (scutellar side up) as shown in Table 23 and the number of GUS spots was determined on the axis side of the embryos as shown in Table 24.

[3] = system: Agrobacterium tumefaciens strain C58 (ABI)
Method: Disarmed Agrobacterium tumefaciens strain C58 (ABI) harboring binary vector pMON18365 (FIG. 2) was used in this Example. The Agrobacterium strain was pre-induced as described previously.
Three mls of pre-induced Agrobacterium suspension (A660 OD 1.0) was added to a 6-well tissue culture plate. After adding the explants, the plant tissues and Agrobacterium suspension cells were subjected to vacuum infiltration for three hours. After the three hour vacuum infiltration, the Agrobacterium suspension was removed and the plant tissues were placed on semi-solid medium containing 10 ? M AgNO3 (final concentration). All the tissues were incubated for three days in the dark.
All explants were transferred to the medium without the growth inhibiting agent and evaluation of Agrobacterium growth was observed seven days post-transfer.

[4] = system: T-DNA transfer to BMS cells
Method: (§1) Transformation of BMS suspension cells was performed following the protocol described in Table 8. For transforming kalanchoe leaves, a suspension of cells from Agrobacterium strain A281 was applied after performing mechanical wounding as described in White and Nester. The Agrobacterium strain, A136 harboring a binary vector pMON25457 (FIG. 3) was used as a negative control.
The efficiency of T-DNA delivery to BMS cells was measured by transient GUS expression post co-cultivtion as well as by staining GUS positive colonies appearing on a single piece of filter 4 weeks after co-culture.
(§2) During pre-induction, AgNO3 was added at two different levels (20 ? M and 40 ? M final concentration) to the pre-induction medium. The final optical density prior to the induction was adjusted to A660 (OD 0.2). Agrobacterium cells were pre-induced for 15 hours. Measurement of the optical density (measure of growth) was taken at the end of pre-induction, just prior to transformation. Agrobacterium cells pre-induced in the absence of AgNO3 were used as a control.

[5] = system: IE-derived callus, genotype (H99×Pa 91)A188; conditions: 50 μM in co-culture medium; three weeks after the transformation
Method: Immature embryos of genotype (H99×Pa 91)A188 were isolated as described. […] The Agrobacterium strain was pre-induced as described. The inoculation was performed using a concentration of A660 OD 4.0 for 15 minutes as described. Post inoculation, Agrobacterium suspension was removed and embryos were placed on different semi-solid co-culture media supplemented with various bacteriocidal compounds. All the tissues were incubated for three days in the dark. The transformation protocol followed was as described previously (corn IE transformation) except that the 1st selection with 50 mg/L Paromomycin was replaced with 25 mg/L Paromomycin for 2 weeks and 50 mg/L Paromomycin for 2 additional weeks. Transformation efficiency was calculated based on the number of embryos producing nptII positive plants as determined by a leaf bleach assay as described earlier. Three weeks after the transformation, the quality and growth characteristics of IE-derived callus co-cultured in the presence of different growth inhibiting agents.

[6] = system: T-DNA transfer (tumor induction) to Kalanchoe cells
Method: as §1, §2

[7] = system: Agrobacterium (strain ABI); assay type: cell-based; parameters: key: “No Growth” indicates there was not an increase in cell density indicating bacteriocidal or bacteriostatic property of the chemical; “Slow Growth” indicates that a slight increase in cell density was noticed and a higher level may be lethal; “Growth” indicates no effect on bacterial growth at the concentration used relative to growth in control medium; conditions: control, AgNO3 20 μM; twenty-four hours
Method: Each of the chemicals listed in Table 26 was resuspended in MS-BMS media and added (final concentration 50 μM) to a 50 ml overnight culture of Agrobacterium (strain ABI). Twenty-four hours after inoculation the effect of the chemicals on the growth of Agrobacterium was recorded. A known bacteriocidal compound, Carbenicillin at a final concentration of 50 mg/L and AgNO3 (20 μM) were used as controls.

[8] = EHA 101:pMON25457 pre-induced with 20 μM AgNO3
[9] = EHA 101:pMON25457 pre-induced with 40 μM AgNO3

In the case of `O=[N+]([O-])[O-].[Ag+]` [AgNO3, silver nitrate], the “Effect on growth of Agrobacterium during co-culture” value ([1]; 20 μM AgNO3, three days co-culture) is reported as “significantly inhibited”, the “Results (fold reduction of Agrobacterium colonies/explant)” value ([1]; 3d co-culture plus 20 μM AgNO3, versus 0d) is reported as 30 fold reduction and the “Average # of Agrobacterium Colonies/Explant” value ([1]; 3d co-culture plus 20 μM AgNO3, 0d value 3 × 10^5 CFU) is reported as 1.0 × 10^4 CFU. For the same molecule, the “Average # GUS spots/embryo (axis)” value ([2]; Treatment 2 (inoculation)) was 40.8, the “Average # GUS spots/embryo (scutellar surface)” value ([2]; Treatment 2 (inoculation)) was 82.5 and the “Average # GUS spots/embryo (axis)” value ([2]; Treatment 3 (co-culture)) was 3.8. The “Average # GUS spots/embryo (scutellar surface)” value ([2]; Treatment 3 (co-culture)) was 81.8, the “Average # GUS spots/embryo (axis)” value ([2]; Treatment 4 (both)) was 8.4 and the “Average # GUS spots/embryo (scutellar surface)” value ([2]; Treatment 4 (both)) was 58.9. The “Growth of Agrobacterium cells surrounding explants” value ([3]; co-culture medium with 10 μM AgNO3, three days) was “No growth”, the “Growth of Agrobacterium cells surrounding explants after transfer to medium without the agent” value ([3]; seven days post-transfer, after three days on 10 μM AgNO3) was “Profuse growth” and the Stable transformants obtained ([4]; Agrobacterium cells treated with AgNO3 during pre-induction) was “no stable transformants”. The “Average # of GUS positive colonies/filter paper” value [4, 8] was 0, the “Results (T-DNA transfer)” value [4, 8] was “no transfer” and the “Average # of GUS positive colonies/filter paper” value [4, 9] was 0. The “Results (T-DNA transfer)” value [4, 9] was “no transfer”, the “Culture response (callus quality) on co-culture media” value [5] was “embryogenically the most competent callus” and the “Results (T-DNA transfer)” value ([6]; A281 pre-induced with 20 μM AgNO3) was “no transfer”. The “Results (T-DNA transfer)” value ([6]; A281 pre-induced with 40 μM AgNO3) was “no transfer” and the “Effect (on growth of Agrobacterium)” value [7] was “No Growth”.
